We go through four compounds from ChEMBL document CHEMBL4265897, “Discovery of benzothiazole amides as potent antimycobacterial agents” (Bioorg Med Chem Lett, 2018).

The subject of data set [1] is Mycobacterium avium. As to the kind of experiment: Antimycobacterial activity against Mycobacterium avium 101 by CLSI method. It counts as functional.
The test system of data set [2] is Mycobacteroides abscessus. As to the kind of experiment: Antimycobacterial activity against Mycobacterium abscessus 21 by CLSI method. The data set is classed as functional.
The test system of data set [3] is Mycobacteroides abscessus. As to the kind of experiment: Antimycobacterial activity against Mycobacterium abscessus 103 by CLSI method. The data set is classed as functional.
Data set [4] concerns Mycobacterium intracellulare. As to the kind of experiment: Antimycobacterial activity against Mycobacterium intracellulare 1956 by CLSI method. It counts as functional.
Data set [5] has as its system Mycobacteroides abscessus. As to the kind of experiment: Antimycobacterial activity against Mycobacterium abscessus ATCC 19977 by CLSI method. The data set is classed as functional.
The test system of data set [6] is Mycobacteroides chelonae. As to the kind of experiment: Antimycobacterial activity against Mycobacterium chelonae 93 by CLSI method. The data set is classed as functional.
For data set [7], the system named is Mycobacterium tuberculosis. As to the kind of experiment: Antimycobacterial activity against Mycobacterium tuberculosis H37Rv MC2 6206 by CLSI method. It counts as functional.
In data set [8] the test system is Mycobacteroides abscessus. As to the kind of experiment: Antimycobacterial activity against Mycobacterium abscessus 79 by CLSI method. The data set is classed as functional.
Data set [9] deals with Mycolicibacterium fortuitum. In words: Antimycobacterial activity against Mycobacterium fortuitum 41 by CLSI method. It counts as functional.
Data set [10] concerns Mycobacteroides abscessus. As to the kind of experiment: Antimycobacterial activity against Mycobacterium abscessus assessed as reduction in viable colony forming unit after 5 days by time-kill assay relative to control. It counts as functional.
Data set [11] deals with Mycobacteroides abscessus. In words: Antimycobacterial activity against Mycobacterium massiliense 119 by CLSI method. The data set is classed as functional, Mycobacterium abscessus subsp. massiliense.
For data set [12], the system named is Mycobacteroides abscessus. In words: Antimycobacterial activity against Mycobacterium abscessus 1 by CLSI method. It counts as functional.
Data set [13] has as its system Mycolicibacterium peregrinum. As to the kind of experiment: Antimycobacterial activity against Mycobacterium peregrinum ATCC 700686 by CLSI method. The data set is classed as functional.
Data set [14] has as its system Mycobacteroides abscessus. In words: Bacteriostatic activity against Mycobacterium abscessus assessed as reduction in viable colony forming unit after 3 days by time-kill assay. It counts as functional, organism-based.
The nature of data set [15]: Solubility of the compound. The data set is classed as physicochemical.
Data set [16] addresses Cytochrome P450 2C19 (Homo sapiens, UniProt P33261). In words: Inhibition of CYP2C19 (unknown origin). It counts as ADME.
The target of data set [17] is T1, Cytochrome P450 3A4 (Homo sapiens, UniProt P08684). In words: Inhibition of CYP3A4 (unknown origin) using midazolam as substrate. The data set is classed as ADME.
T1 sequence (P08684 whole entry): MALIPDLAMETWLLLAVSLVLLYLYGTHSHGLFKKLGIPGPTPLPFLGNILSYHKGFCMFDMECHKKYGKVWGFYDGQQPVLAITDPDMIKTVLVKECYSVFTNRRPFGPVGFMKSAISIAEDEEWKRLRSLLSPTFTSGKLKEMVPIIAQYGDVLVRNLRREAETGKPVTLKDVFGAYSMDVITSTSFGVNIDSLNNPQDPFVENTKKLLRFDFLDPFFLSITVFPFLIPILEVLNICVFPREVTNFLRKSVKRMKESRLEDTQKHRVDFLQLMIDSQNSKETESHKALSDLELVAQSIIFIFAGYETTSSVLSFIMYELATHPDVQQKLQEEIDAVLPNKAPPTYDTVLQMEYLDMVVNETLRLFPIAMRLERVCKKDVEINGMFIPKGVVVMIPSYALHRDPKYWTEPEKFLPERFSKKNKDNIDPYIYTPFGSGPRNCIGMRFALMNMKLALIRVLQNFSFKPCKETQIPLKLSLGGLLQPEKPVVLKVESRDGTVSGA
Data set [18] in a line: Protein binding in human serum. The data set is classed as ADME, cell-free. The settings on record: read-out: PB.
For data set [19], the system named is RBCs. In words: Hemolytic activity in RBC (unknown origin) at 128 ug/ml. The data set is classed as ADME, cell-based. To be noted: erythrocyte.
Data set [20] addresses Cytochrome P450 2C9 (Homo sapiens, UniProt P11712). In words: Inhibition of CYP2C9 (unknown origin). It counts as ADME.
The target of data set [21] is T1, Cytochrome P450 3A4. As to the kind of experiment: Inhibition of CYP3A4 (unknown origin) using testosterone as substrate. It counts as ADME.
The target in data set [22] is Cytochrome P450 2D6 (Homo sapiens, UniProt P10635). In words: Inhibition of CYP2D6 (unknown origin). The data set is classed as ADME.
Cytochrome P450 2D6, sequence (P10635 whole entry): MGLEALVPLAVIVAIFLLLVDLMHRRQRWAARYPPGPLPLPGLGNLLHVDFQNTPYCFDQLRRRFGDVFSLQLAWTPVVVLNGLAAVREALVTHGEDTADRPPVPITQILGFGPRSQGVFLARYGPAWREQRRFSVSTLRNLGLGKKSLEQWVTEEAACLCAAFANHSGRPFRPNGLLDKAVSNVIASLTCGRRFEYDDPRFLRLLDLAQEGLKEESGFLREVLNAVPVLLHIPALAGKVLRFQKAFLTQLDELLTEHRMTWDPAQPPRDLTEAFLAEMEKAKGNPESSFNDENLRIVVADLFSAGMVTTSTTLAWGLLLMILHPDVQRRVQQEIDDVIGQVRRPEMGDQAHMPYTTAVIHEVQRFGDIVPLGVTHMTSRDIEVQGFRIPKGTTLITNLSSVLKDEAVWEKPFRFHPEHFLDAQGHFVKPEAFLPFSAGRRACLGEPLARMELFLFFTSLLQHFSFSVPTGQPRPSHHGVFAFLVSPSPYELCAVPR
Data set [23] has as its target T2, Cytochrome P450 2C8 (Homo sapiens, UniProt P10632).
T2 sequence (P10632 whole entry): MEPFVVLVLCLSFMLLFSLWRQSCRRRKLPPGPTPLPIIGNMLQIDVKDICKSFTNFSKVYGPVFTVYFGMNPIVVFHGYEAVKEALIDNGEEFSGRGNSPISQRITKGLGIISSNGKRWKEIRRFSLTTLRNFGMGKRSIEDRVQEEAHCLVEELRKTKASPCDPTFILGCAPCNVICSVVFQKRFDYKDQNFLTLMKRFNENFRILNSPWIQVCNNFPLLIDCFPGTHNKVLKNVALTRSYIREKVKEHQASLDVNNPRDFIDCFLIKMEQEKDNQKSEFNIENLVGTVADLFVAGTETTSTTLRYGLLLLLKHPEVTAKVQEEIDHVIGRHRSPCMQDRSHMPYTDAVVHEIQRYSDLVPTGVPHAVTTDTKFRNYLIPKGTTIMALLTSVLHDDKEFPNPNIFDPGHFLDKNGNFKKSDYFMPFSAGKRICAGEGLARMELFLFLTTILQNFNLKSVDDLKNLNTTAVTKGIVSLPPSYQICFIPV
In words: Inhibition of CYP2C8 (unknown origin). The data set is classed as ADME.

In data set [24] the target is T3, Cytochrome P450 2B6 (Homo sapiens, UniProt P20813).
T3 sequence (P20813 whole entry): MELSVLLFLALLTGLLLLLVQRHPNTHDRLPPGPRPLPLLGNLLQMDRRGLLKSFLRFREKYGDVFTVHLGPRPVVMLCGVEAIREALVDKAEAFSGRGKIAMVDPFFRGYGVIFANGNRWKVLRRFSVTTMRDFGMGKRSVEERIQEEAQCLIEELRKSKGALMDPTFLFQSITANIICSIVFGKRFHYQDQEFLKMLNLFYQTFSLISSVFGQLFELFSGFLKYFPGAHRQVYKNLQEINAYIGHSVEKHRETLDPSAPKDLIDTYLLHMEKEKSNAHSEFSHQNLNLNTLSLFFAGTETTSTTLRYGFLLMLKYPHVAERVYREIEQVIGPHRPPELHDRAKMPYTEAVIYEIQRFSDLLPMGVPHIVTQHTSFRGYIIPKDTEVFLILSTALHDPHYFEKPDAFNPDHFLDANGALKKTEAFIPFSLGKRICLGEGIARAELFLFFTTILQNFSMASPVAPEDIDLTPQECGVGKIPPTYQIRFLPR
As to the kind of experiment: Inhibition of CYP2B6 (unknown origin). It counts as ADME.

Data set [25] deals with HepG2. As to the kind of experiment: Cytotoxicity against human HepG2 cells. It counts as cell-based.
Data set [26] is described as follows: Clearance in mouse plasma at 10 mg/kg, iv. The data set is classed as ADME, organism-based.
Data set [27] can be described thus: Oral bioavailability in mouse at 100 mg/kg. The data set is classed as ADME, organism-based. To be noted: in vivo.

Converted amounts (≈) assume the structure as drawn. The source made the active and inactive calls. No cut-off for these calls is given here. Bounds are passed on as bounds.

As usually defined, the MIC is the lowest concentration that inhibits growth of the organism. The low end stands for a more susceptible organism, the high end for a less susceptible organism. By IC50 is commonly meant the concentration that gives 50% inhibition. Low readings indicate higher potency, high ones lower potency. One may read the clearance as a measure of how efficiently the substance is removed, as volume per time. The low end stands for inefficient removal, the high end for efficient removal. The term bioavailability denotes the share of a dose that reaches the circulation, judged against a reference dose that is usually intravenous. A lower bioavailability goes with little systemic uptake.

Cytochrome P450 2C9, sequence (P11712 whole entry): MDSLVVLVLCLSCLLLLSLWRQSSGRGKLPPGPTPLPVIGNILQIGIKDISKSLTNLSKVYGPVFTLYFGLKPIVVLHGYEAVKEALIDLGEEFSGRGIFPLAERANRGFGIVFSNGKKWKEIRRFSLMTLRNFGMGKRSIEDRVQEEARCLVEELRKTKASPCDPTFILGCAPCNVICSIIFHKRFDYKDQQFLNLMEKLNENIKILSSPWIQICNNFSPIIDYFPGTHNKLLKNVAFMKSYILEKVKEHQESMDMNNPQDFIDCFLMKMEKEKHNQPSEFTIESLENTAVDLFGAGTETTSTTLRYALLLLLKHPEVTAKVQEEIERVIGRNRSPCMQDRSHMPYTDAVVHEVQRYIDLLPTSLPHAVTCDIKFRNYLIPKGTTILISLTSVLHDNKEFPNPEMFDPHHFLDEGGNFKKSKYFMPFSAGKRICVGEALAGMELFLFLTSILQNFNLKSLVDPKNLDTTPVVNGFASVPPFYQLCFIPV
Cytochrome P450 2C19, sequence (P33261 whole entry): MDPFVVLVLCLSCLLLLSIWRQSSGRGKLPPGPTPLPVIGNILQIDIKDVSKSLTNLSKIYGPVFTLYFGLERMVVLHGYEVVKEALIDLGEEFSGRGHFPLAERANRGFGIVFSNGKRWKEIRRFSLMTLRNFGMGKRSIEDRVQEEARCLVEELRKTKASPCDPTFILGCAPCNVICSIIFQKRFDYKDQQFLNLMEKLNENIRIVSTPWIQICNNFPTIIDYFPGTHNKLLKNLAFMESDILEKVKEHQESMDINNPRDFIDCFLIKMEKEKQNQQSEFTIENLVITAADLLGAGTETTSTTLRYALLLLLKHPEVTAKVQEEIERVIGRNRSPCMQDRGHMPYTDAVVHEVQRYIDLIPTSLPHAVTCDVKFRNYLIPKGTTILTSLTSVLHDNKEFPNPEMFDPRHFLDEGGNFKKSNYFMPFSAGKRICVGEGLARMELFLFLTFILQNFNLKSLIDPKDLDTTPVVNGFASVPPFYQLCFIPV

For the compound `CC12CC3CC(C)(C1)CC(C(=O)Nc1nc4ccc(OC(F)(F)F)cc4s1)(C3)C2`, the MIC worked out at 2 µg/mL (≈ 4.71 µM) in data set [1]; 0.25 µg/mL (≈ 0.589 µM) in [2]; 0.25 µg/mL (≈ 0.589 µM) in data set [3]; 1 µg/mL (≈ 2.36 µM) in [4]; 0.25 µg/mL (≈ 0.589 µM) in data set [5]; 0.25 µg/mL (≈ 0.589 µM) in data set [6]. Also, the MIC was found to be 1 µg/mL (≈ 2.36 µM) in data set [7]; 0.25 µg/mL (≈ 0.589 µM) in data set [8]; 0.25 µg/mL (≈ 0.589 µM) in data set [9]; 0.25 µg/mL (≈ 0.589 µM) in [11]; 0.25 µg/mL (≈ 0.589 µM) in data set [12]; 0.12 µg/mL (≈ 0.283 µM) in [13]. In [10], the Activity is recorded as 2 deltalog10CFU. In addition, the result in [14] was Active.
On to `CC1CC(C(=O)Nc2nc3ccc(Cl)cc3s2)CC(C)(C)C1` (centres undefined), for which the MIC came to 16 µg/mL (≈ 47.5 µM) in [1]; 0.25 µg/mL (≈ 0.742 µM) in data set [2]; 0.25 µg/mL (≈ 0.742 µM) in data set [3]; 4 µg/mL (≈ 11.9 µM) in data set [4]; 0.25 µg/mL (≈ 0.742 µM) in data set [6]; 4 µg/mL (≈ 11.9 µM) in data set [7]. In addition, the MIC was 0.25 µg/mL (≈ 0.742 µM) in [8]; 0.25 µg/mL (≈ 0.742 µM) in data set [9]; 0.5 µg/mL (≈ 1.48 µM) in data set [11]; 0.5 µg/mL (≈ 1.48 µM) in [12]; 0.12 µg/mL (≈ 0.356 µM) in [13]. In addition, the solubility entry in [15] is on record as “Insoluble”. Moreover, the IC50 was 15.5 µM in data set [16]; > 20 µM in data set [17]; > 20 µM in data set [20]; > 20 µM in [21]; 0.2 µM in data set [22]; > 20 µM in data set [23]. Moreover, the IC50 in data set [24] turned out to be 14.9 µM. Also, the fraction unbound in data set [18] was < 0.01. In data set [19], the Activity entry was “Non-Toxic”.
Regarding `CC1CC(C(=O)Nc2nc3ccc(OC(F)(F)F)cc3s2)CC(C)(C)C1` (centres undefined), the MIC in [1] is > 64 µg/mL; in [2] it was 0.25 µg/mL (≈ 0.647 µM); in data set [3], 0.25 µg/mL (≈ 0.647 µM); in data set [4], > 64 µg/mL; in [6], 0.12 µg/mL (≈ 0.311 µM); in data set [8] it was 0.25 µg/mL (≈ 0.647 µM). The MIC was found to be 1 µg/mL (≈ 2.59 µM) in [9], 0.25 µg/mL (≈ 0.647 µM) in data set [11], 0.5 µg/mL (≈ 1.29 µM) in [12] and 0.25 µg/mL (≈ 0.647 µM) in [13]. Also, the solubility result in data set [15] is “Insoluble”. Further, the IC50 is > 20 µM in data set [16]; > 20 µM in [17]; > 100 µM in data set [25]; > 20 µM in data set [20]; > 20 µM in data set [21]; > 20 µM in data set [22]. The IC50 in data set [23] and in [24] was > 20 µM each time. The fraction unbound in data set [18] is < 0.01. Further, the Activity result in [19] is given as “Non-Toxic”.
The compound `CC1CC(C(=O)Nc2nc3ccc(Br)cc3s2)CC(C)(C)C1` (centres undefined) had a clearance in [26] of 25 mL/min/kg. For the same compound, the MIC in [1] was > 64 µg/mL; in data set [2], 0.5 µg/mL (≈ 1.31 µM); in data set [3], 0.25 µg/mL (≈ 0.656 µM); in data set [4] it was > 64 µg/mL; in data set [6] it was 0.5 µg/mL (≈ 1.31 µM); in data set [7] it was 2 µg/mL (≈ 5.24 µM). Besides, the minimal inhibitory concentration (MIC) in data set [8] stood at 0.5 µg/mL (≈ 1.31 µM); in data set [9] it was 0.5 µg/mL (≈ 1.31 µM); in data set [11], 0.5 µg/mL (≈ 1.31 µM); in data set [12], 1 µg/mL (≈ 2.62 µM); in [13], 0.12 µg/mL (≈ 0.315 µM). For the same compound, the solubility result in [15] is given as “Insoluble”. The IC50 in data set [16] is 12.7 µM; in [17], > 20 µM; in data set [20] it was > 20 µM; in data set [21], > 20 µM; in data set [22], 1.6 µM; in data set [23], > 20 µM. Besides, the IC50 in [24] worked out at 12.8 µM. Moreover, in [18], the fraction unbound was < 0.01. The bioavailability in data set [27] turned out to be 75%. In addition, in [19], the Activity result is “Non-Toxic”.
